# “Also recorded” adds a separate entry of the source. Square brackets hold non-standard residues; d marks the D form. Peptide text beside a SMILES is read from it. pY = N[C@@H](Cc1ccc(OP(=O)(O)O)cc1)C(=O)O
# Tests used:
# STAT1 = target: T1, STAT1 (Homo sapiens, UniProt P42224); assay: Competitive fluorescence polarization (FP) assay, STAT1 SH2 domain; format: binding; conditions: tracer 5-carboxyfluorescein-GpYDKPHVL, Ki derived from IC50
# T1 sequence (P42224 1-750): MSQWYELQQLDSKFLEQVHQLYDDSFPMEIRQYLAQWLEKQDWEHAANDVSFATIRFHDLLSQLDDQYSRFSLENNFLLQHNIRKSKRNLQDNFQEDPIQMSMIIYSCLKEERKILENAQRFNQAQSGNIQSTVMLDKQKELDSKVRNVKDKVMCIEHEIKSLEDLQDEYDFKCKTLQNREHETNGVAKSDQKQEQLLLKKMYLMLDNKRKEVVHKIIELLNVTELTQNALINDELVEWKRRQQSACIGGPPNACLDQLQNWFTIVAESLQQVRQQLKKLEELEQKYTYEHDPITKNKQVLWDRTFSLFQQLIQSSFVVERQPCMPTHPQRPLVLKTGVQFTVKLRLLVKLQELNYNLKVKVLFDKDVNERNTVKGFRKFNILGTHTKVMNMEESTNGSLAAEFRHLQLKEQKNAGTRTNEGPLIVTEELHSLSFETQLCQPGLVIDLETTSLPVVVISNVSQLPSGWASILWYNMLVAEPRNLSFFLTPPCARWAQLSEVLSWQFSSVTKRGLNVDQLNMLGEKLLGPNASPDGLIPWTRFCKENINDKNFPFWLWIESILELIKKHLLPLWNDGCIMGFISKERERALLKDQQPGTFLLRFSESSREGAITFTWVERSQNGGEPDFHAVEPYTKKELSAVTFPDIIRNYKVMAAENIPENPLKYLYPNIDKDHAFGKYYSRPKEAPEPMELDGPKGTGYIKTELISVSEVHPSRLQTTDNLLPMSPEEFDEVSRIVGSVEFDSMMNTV
# Description: (§1) Fluorescence polarization assays
# (§2) Competitive fluorescence polarization assays, which measure the abilities of test compounds (dissolved in DMSO) to displace a fluorescent-labeled peptide from the SH2 domain of a STAT protein, were carried out essentially as described. Proteins were used at the following final concentrations: 23 nM or 28 nM for STAT4; between 56 nM and 91 nM for STAT1; 107 nM or 110 nM for STAT3; between 131 nM and 177 nM for STAT5a; between 62 nM and 85 nM for STAT5b; and 101 nM or 106 nM for STAT6. These concentrations represent the approximate […]
# (§3) dissociation constant for peptide binding of the respective protein batches used in the assays.
# (§4) The following peptides were used: 5-carboxyfluorescein-GpYLPQNID-OH for STAT4; 5-carboxyfluorescein-GpYDKPHVL for STAT1; 5-carboxyfluorescein-GpYLPQTV-NH2 for STAT3; 5-carboxyfluorescein-GpYLVLDKW for STAT5a/b, and 5-carboxyfluorescein- […]
# (§5) Gp[…]-OH for STAT6. All peptides were used at a final concentration of 10 nM. The buffer consisted of 10 mM Tris (pH 8.0), 50 mM NaCl, 1 mM EDTA, 1 mM DTT, 0 .1 % Nonidet P-40 substitute, and 2 % DMSO. After incubation of protein and test compound for 1 h at room temperature, the fluorescent -labeled peptide was added. Samples were transferred to 384 - well microtiter plates and fluorescence polarization was read after an additional 60 min of incubation time. Measurements were performed in triplicate. Percent binding was calculated based on a logarithmic curve fit using OriginPro 8G software. IC 50 values were converted to Ki-values via the published equation[3] using the corresponding Excel spread sheet […]
# (§6) https://websites.umich.edu/~shaomengwanglab/software/calc_ki/index.html .
# (§7) Error bars represent standard deviations. Ligand efficiencies (LE) were calculated by the formula LE = -1,37 x log Ki / number of non-hydrogen atoms.[4] […]
# STAT4 [1] = target: T2, STAT4 (Homo sapiens, UniProt Q14765); assay: Competitive fluorescence polarization (FP) assay, STAT4 SH2 domain; format: binding; conditions: FP assay; for Ki: tracer 5-carboxyfluorescein-GpYLPQNID-OH, Ki derived from IC50, read-out: STAT4 K i; for Ki / IC50: mean ± SD, n = 3
# T2 sequence (Q14765 1-748): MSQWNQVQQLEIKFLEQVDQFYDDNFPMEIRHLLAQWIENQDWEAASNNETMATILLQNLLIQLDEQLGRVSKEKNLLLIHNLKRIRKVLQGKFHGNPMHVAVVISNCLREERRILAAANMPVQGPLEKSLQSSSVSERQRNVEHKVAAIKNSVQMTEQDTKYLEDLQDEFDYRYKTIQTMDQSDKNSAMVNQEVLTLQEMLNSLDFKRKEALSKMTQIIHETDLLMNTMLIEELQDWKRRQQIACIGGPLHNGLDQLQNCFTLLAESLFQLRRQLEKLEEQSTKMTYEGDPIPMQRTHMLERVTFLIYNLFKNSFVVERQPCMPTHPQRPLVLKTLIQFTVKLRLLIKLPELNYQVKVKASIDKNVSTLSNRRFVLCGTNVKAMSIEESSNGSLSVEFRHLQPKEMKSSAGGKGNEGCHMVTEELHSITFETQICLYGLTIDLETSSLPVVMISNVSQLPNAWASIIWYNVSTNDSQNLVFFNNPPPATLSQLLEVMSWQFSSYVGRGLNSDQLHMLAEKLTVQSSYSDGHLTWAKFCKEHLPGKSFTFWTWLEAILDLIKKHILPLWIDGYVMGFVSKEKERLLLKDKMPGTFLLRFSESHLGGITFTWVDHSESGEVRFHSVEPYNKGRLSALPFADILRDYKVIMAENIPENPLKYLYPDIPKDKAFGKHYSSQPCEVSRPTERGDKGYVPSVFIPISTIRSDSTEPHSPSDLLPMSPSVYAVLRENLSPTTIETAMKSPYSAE
# Description: as §1, §2, §3, §4, §5, §6, §7
# STAT3 = STAT3 (Homo sapiens, UniProt P40763); assay: Competitive fluorescence polarization (FP) assay, STAT3 SH2 domain; format: binding; conditions: tracer 5-carboxyfluorescein-GpYLPQTV-NH2, Ki derived from IC50
# Chain of STAT3 (P40763 whole entry, species assumed, the tested form may be a part): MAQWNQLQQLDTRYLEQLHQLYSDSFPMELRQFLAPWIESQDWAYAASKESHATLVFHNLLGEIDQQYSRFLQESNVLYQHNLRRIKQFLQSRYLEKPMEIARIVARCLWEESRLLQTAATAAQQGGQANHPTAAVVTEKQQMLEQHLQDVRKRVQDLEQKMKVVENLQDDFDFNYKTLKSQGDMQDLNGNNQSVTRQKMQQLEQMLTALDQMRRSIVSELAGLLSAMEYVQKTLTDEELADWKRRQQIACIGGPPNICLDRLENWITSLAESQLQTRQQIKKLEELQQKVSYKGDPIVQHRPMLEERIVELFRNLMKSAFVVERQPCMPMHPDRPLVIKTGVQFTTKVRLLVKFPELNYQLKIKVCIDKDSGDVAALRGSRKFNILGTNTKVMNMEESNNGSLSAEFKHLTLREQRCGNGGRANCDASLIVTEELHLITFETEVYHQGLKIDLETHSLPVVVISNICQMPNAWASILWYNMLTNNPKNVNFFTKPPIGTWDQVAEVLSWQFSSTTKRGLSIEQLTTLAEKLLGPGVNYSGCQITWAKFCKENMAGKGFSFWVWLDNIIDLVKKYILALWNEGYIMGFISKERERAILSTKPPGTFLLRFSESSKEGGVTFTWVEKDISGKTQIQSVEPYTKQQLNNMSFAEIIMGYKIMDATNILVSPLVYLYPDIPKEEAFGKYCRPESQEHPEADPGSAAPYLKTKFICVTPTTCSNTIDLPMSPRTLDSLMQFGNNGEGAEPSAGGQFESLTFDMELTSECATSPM
# Description: as §1, §2, §3, §4, §5, §6, §7
# STAT4 [2] = target: T2, STAT4; assay: IL-12-induced STAT4 Tyr693 phosphorylation in NK-92 cells (Western blot); format: cell-based; parameters: utilizing cellular lysates from the STAT4‐expressing natural killer cell line NK‐92; endogenous in cells; host or cells: NK-92 (DSMZ)
# Description: NK-92 cells (DSMZ) were cultured in α-MEM containing 12.5% fetal bovine serum (FBS), 12.5% horse serum, 2 mM L-glutamine, penicillin/streptomycin and 50 U/ml IL -2. […]
# The components of cell lysates from treated cells, or heat-treated lysates from CETSA, were separated by SDS-PAGE (10%), transferred to nitrocellulose membrane (Bio-Rad) and detected using monoclonal rabbit primary antibodies (Cell Signaling), α-rabbit-HRP secondary antibody (Dako) and Western Lightning Plus chemiluminescence reagent (Perkin Elmer).
# Bands were visualized using an ImageQuant system (GE Healthcare) and quantitated using ImageJ software (NIH). […]
# The sitting drop was composed of 0.1 µl protein solution and 0.1 µl reservoir solution. Plates were stored at 19°C in a protein […]
# In the first set of experiments, w e tried to crystallize STAT4 as a SUMO -STAT4 fusion protein […]
# was cleaved off as described above.
# Screening for crystallization conditions for tag-free STAT4 was performed both in the absence or presence of 1 equivalent of 6m or 6h. Since the chosen protein concentration of 3.6 mg/ml appeared to be too low, screening was repeated with a higher concentration of 6.4 mg/ml STAT4 for all conditions (corresponding to 100 µM 6m). Both the SUMO-STAT4 and the tag-free STAT4 preferentially precipitated under conditions containing polyethylene glycol. In one set of experiments, we also screened for conditions in the presence of the high-affinity peptide GY(PO3H2)LPQNID adapted from the IL-12 receptor. However, none of the conditions resulted in the growth of STAT4 crystals (Table S4).
IC50 (STAT4 [1]) [µM],Structure (SMILES),Ki (STAT4 [1]) [µM],other results
,"CC[C@H](C)[C@H](NC(=O)[C@H](CC(N)=O)NC(=O)[C@H](CCC(N)=O)NC(=O)[C@@H]1CCCN1C(=O)[C@H](CC(C)C)NC(=O)[C@H](Cc1ccc(OP(=O)(O)O)cc1)NC(=O)CNC(C)=O)C(=O)N[C@@H](CC(=O)O)C(=O)O [Ac‐GpYLPQNID, reference compound] (Ac-G[pY]LPQNID-OH)",0.22 ± 0.02,Ki (STAT1): 0.36 ± 0.08 µM; Ki (STAT3): 0.24 ± 0.04 µM
,Oc1ccc(-c2ccc3ccccc3c2)cc1F [Compound 4m],,STAT4 inhibition at 200 µM (STAT4 [1]; 200 µM): lack of activity; also recorded: no inhibition at 200 µM
,O=P(O)(O)Cc1ccc(-c2ccc3ccccc3c2)cc1F [Compound 7],,"inhibition at 100 µM (STAT4 [1]; 100 µM, the highest concentration tested): 33 ± 4%"
83 ± 2,O=P(O)(O)C(F)(F)c1ccc(-c2ccoc2)cc1F [Compound 8b],39 ± 1,
15 ± 1,Cn1cc(-c2ccc(C(F)(F)P(=O)(O)O)c(F)c2)cn1 [Compound 8c],8 ± 0.7,
7.7 ± 0.4,O=P(O)(O)C(F)(F)c1ccc(-c2cccs2)cc1F [Compound 8d],3.6 ± 0.2,
6 ± 0.6,O=P(O)(O)C(F)(F)c1ccc(-c2ccsc2)cc1F [Compound 8e],2.8 ± 0.3,
9.4 ± 0.2,COC(=O)c1cc(-c2ccc(C(F)(F)P(=O)(O)O)c(F)c2)cs1 [Compound 8f],4.4 ± 0.1,
24 ± 4,NC(=O)c1cc(-c2ccc(C(F)(F)P(=O)(O)O)c(F)c2)cs1 [Compound 8g],11 ± 2,
15 ± 1,CC(=O)c1cc(-c2ccc(C(F)(F)P(=O)(O)O)c(F)c2)cs1 [Compound 8h],7.1 ± 0.6,
12 ± 2,O=P(O)(O)C(F)(F)c1ccc(-c2csc(Cl)c2)cc1F [Compound 8i],5.5 ± 0.7,
15 ± 1,O=P(O)(O)C(F)(F)c1ccc(-c2ccsc2Cl)cc1F [Compound 8j],7.3 ± 0.6,
18 ± 2,Cc1sccc1-c1ccc(C(F)(F)P(=O)(O)O)c(F)c1 [Compound 8l],8.7 ± 0.9,
19 ± 1,Cc1cscc1-c1ccc(C(F)(F)P(=O)(O)O)c(F)c1 [Compound 8m],8.9 ± 0.7,
,CC(C)(C)C(=O)OCOP(=O)(Cc1ccc(-c2ccc3ccccc3c2)cc1F)OCOC(=O)C(C)(C)C [Compound 10],,"inhibition of IL‐12‐induced STAT4 Tyr693 phosphorylation (STAT4 [2]; 2 h, presence of 25% serum): inactive; also recorded: does not; inhibition of IL‐12‐induced STAT4 Tyr693 phosphorylation (STAT4 [2]; absence of serum): still inactive"

Structure (SMILES),IC50 (STAT4 [1]) [µM],Ki (STAT4 [1]) [µM],other results
COC(=O)c1ccccc1-c1ccc(OP(=O)(O)O)cc1 [Compound 6a],18 ± 2,9.1 ± 0.8,
O=C(O)c1ccccc1-c1ccc(OP(=O)(O)O)cc1 [Compound 6b],17 ± 1,7.8 ± 0.5,
N#Cc1ccccc1-c1ccc(OP(=O)(O)O)cc1 [Compound 6c],5.2 ± 0.6,2.7 ± 0.3,
CC(=O)NCc1ccccc1-c1ccc(OP(=O)(O)O)cc1 [Compound 6d],12 ± 1,6.2 ± 0.4,
COc1cc(OC)cc(-c2ccc(OP(=O)(O)O)cc2)c1 [Compound 6e],3.9 ± 0.2,1.9 ± 0.1,
O=P(O)(O)Oc1ccc(-c2cccc3ccccc23)cc1 [Compound 6f],1.8 ± 0.2,0.84 ± 0.08,
O=P(O)(O)Oc1ccc(-c2ccccc2)c(F)c1 [Compound 6i],8.1 ± 0.1,3.8 ± 0.1,
O=P(O)(O)Oc1c(F)cc(-c2ccccc2)cc1F [Compound 6j],4.3 ± 0.3,2 ± 0.1,
O=P(O)(O)Oc1ccc(-c2ccccc2)cc1Cl [Compound 6k],7 ± 2,3.3 ± 1,
COc1cc(-c2ccccc2)ccc1OP(=O)(O)O [Compound 6l],47 ± 5,22 ± 2,

# — article PMC12087874, “Biaryl Phosphates and Phosphonates as Selective Inhibitors of the Transcription Factor STAT4” (Angewandte Chemie (International Ed. in English), 2025)
